Measured values: publication PMC8409970, “In vitro and in silico studies of bis (indol-3-yl) methane derivatives as potential α-glucosidase and α-amylase inhibitors” (Journal of Enzyme Inhibition and Medicinal Chemistry, 2021)

Legend:
α-glucosidase = α-glucosidase (Saccharomyces cerevisiae, UniProt P53341); assay: α-Glucosidase inhibition assay (PNPG substrate); assay type: biochemical; conditions: pH 6.8, 37 °C
Experimental: The in vitro α-glucosidase inhibitory activities of all synthesised compounds were evaluated using p-nitrophenyl-α-D-glucopyranoside (PNPG) as substrate.
The α-glucosidase inhibitory activity of compounds 5a ∼ c, 6a ∼ c, and 7a ∼ c were performed according to our previous report.[30]^,[31] The 10 μL of α-glucosidase enzyme (final concentration 0.1 U/mL) and 10 μL of test compounds (dissolved in DMSO) were added into 130 μL of phosphate buffer (0.1 M, pH 6.8), followed 10 min incubation at 37 °C. Then 50 μL of PNPG (final concentration 0.25 mM) was added, and mixture was continuely incubated for 20 min at 37 °C. The absorbance at 405 nm was measured using Multimodel Reader. The percentage of enzyme inhibition was calculated: % Inhibition = [(A1– A0)/A0] × 100%, where A1 was the absorbance with the test compound, and A0 was the absorbance without the test compound. The IC50 value of compound was obtained from the plot of inhibition percentage vs test compound at different concentrations. […] The experiment was performed in duplicate.

α-amylase = target: T1, α-amylase (Sus scrofa, UniProt P00690); assay: α-Amylase inhibition assay (starch/DNS); assay type: biochemical; conditions: starch substrate, pH 6.9, 37 °C
T1 sequence (P00690 16-511): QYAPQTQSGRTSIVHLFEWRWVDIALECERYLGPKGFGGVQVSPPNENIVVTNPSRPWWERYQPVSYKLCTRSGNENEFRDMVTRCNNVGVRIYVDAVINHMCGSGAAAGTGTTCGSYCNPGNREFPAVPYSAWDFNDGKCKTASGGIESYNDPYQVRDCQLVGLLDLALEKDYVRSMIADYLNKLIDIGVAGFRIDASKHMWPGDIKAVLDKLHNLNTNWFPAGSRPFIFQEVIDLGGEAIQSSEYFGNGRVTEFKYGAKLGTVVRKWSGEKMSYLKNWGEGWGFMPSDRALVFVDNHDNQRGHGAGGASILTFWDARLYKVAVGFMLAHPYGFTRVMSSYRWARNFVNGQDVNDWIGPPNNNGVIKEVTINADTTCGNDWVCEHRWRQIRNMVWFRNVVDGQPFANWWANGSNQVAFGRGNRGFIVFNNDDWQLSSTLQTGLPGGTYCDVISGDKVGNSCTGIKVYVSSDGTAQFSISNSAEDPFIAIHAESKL
Experimental: The α-amylase inhibitory activity of all tested compounds was performed according to previous report.[33]^,[34] A 10 μL of α-amylase enzyme solution (final concentration 0.25 U/mL), 10 μL of test compounds (dissolved in DMSO), and 80 μL of phosphate buffer (20 mM, pH 6.9) were mixed and incubated for 10 min at 37 °C. Next, 100 μL starch solution (final concentration 0.5%) was added into the mixture followed by an incubation of 10 min. After 100 μL DNS (containing 1 M Potassium sodium tartrate and 48 mM 3,5-Dinitrosalicylic acid) was added, the mixture was kept incubated in boiling water for 15 min. Finally, the absorbance was measured at 540 nm after dilution of solution by adding 900 μL distilled water. The percentage of enzyme inhibition was calculated: % Inhibition = [(A1– A0)/A0] × 100%, where A1 was the absorbance with the test compound, and A0 was the absorbance without the test compound. The IC50 value of compound was obtained from the plot of inhibition percentage vs test compound at different concentrations. […] The experiment was performed in duplicate.

Sequence of α-glucosidase (P53341 whole entry): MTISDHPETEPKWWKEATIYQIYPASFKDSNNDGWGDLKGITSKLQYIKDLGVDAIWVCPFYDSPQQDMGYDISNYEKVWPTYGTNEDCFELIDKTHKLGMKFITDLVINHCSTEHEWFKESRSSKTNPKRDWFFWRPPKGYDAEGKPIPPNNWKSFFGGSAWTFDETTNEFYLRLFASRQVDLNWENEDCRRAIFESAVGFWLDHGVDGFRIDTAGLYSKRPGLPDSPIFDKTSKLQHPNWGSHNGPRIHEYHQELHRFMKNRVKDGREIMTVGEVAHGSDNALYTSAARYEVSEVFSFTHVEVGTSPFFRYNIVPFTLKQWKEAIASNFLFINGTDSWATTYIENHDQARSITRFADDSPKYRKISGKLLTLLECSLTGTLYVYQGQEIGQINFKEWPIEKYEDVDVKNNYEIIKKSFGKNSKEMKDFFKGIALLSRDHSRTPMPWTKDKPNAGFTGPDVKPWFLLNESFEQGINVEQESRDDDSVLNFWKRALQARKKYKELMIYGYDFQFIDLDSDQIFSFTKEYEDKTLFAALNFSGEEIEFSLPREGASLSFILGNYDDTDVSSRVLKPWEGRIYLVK

| Substance | IC50 (α-glucosidase) [µM] | IC50 (α-amylase) [µM] |
| --- | --- | --- |
| 2,2-Bis(1-methyl-1H-pyrrol-3-yl)acetonitrile [Compound 6a] | 220 ± 5.02 | 464 ± 9.47 |
| 2,2-Di(1H-pyrrol-3-yl)acetonitrile [Compound 6c] | 130 ± 3.81 | 419 ± 11.3 |
